Results on one molecule are retold here after patent US10258612B2, “Mitochondrial lipid permeable iron chelators for treating and preventing ischemia/reperfusion (I/R) injury in the heart following an ischemic event” (Northwestern University, priority 2015, dated 2019).

The conditions of data set [1]: cited from earlier work.
A short description of data set [2]: Complete blood count and serum iron parameters in wild-type mice with chelator treatment. It is filed as in vivo. The conditions noted are these: iron chelators for 3 weeks, n = 5, mean±SEM. Here is the method:
To test the use of these iron chelators in the setting of I/R, mice were pretreated for a week with these chelators and then subjected to I/R or sham operation. Chelation was continued for two weeks after the operation. […] To rule out any changes of serum iron hematopoiesis that can account for the cardiac functional difference, we performed complete blood counts and measured serum iron parameters in wild-type mice treated with iron chelators for 3 weeks.
Mice were treated with 80 mg/kg BPD (Sigma) in normal saline solution daily or 50 mg/kg DFO (Sigma) in normal saline every other day via intraperitoneal injection. The dose of BPD was chosen based on its ability to modulate cardiac mitochondrial iron, and the dose of DFO was chosen according to previously published studies (Ichikawa et al., 2014). BPD was prepared as a 400 mg/ml stock solution in ethanol and diluted 1:100 in normal saline to working concentration. DFO was prepared as a 250 mg/ml stock in water and diluted 1:100 in normal saline to working concentration.

`CC(=O)N(O)CCCCCNC(=O)CCC(=O)N(O)CCCCCNC(=O)CCC(=O)N(O)CCCCCN` [DFO, deferoxamine]: the “log P” value in data set [1] is listed as −0.614. For the same molecule, in data set [2], the Hematocrit is 47.02 ± 2.25%, the Hemoglobin came out at 12.96 ± 0.53 g/dL, the “Iron Saturation” value is given as 18.66 ± 1.68 % and the MCH is 13.28 ± 0.12 pg. Moreover, in data set [2], the MCHC is on record as 27.62 ± 0.32 g/dL, the MCV is 48.1 ± 0.31 fL, the Platelet is 711.6 ± 139.86 10^3/μL and the RBC is 9.77 ± 0.43 10^6/μL. Also, in data set [2], the RDW is recorded as 17 ± 0.32%, the “Serum Iron” value worked out at 53.37 ± 6.63 µg/dL, the “Total Iron Binding Capacity” value is 281.21 ± 12.76 µg/dL and the “Unsaturated Iron Binding Capacity” value stood at 227.85 ± 7.71 µg/dL. Further, the WBC in data set [2] is on record as 6.62 ± 0.85 10^3/μL.

One may read the log P as the decadic logarithm of the partition coefficient of the neutral form, usually between octanol and water.
